Test [1] addresses Tyrosine-protein kinase JAK1 (Homo sapiens) (UniProt P23458). Nature of the test: Inhibition of JAK1 JH1catalytic domain (unknown origin) at 1 uM by Ambit Kinomescan binding assay relative to control.
Test [2] deals with Ephrin type-A receptor 5 (Homo sapiens) (UniProt P54756). Briefly: Inhibition of EPHA5 (unknown origin) at 1 uM by Ambit Kinomescan binding assay relative to control.
For test [3], the target named is Calcium/calmodulin-dependent protein kinase type II subunit gamma (Homo sapiens) (UniProt Q13555). Nature of the test: Inhibition of CaMK2g Lys1 labeling site harbouring KTSTQEYAAKIINTKK in human A-375 cells at 0.5 uM by KiNativ Profiling analysis relative to control. The format is cell-based.
Calcium/calmodulin-dependent protein kinase type II subunit gamma (Homo sapiens), sequence (Q13555 whole entry): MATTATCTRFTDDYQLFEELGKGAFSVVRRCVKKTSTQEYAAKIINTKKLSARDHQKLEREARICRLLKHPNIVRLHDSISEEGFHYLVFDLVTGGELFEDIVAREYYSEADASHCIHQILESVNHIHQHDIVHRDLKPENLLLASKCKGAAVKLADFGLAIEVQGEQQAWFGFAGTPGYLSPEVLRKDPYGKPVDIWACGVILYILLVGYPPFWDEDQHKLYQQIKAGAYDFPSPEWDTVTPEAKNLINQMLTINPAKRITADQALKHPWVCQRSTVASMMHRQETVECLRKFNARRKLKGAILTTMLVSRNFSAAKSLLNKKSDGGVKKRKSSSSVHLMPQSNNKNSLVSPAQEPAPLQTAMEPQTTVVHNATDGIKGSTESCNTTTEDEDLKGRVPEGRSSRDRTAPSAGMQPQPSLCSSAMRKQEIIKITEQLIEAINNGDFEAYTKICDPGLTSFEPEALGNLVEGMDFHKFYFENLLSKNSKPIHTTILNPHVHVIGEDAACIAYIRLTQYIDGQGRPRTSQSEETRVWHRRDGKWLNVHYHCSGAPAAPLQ
For test [4], the target named is SRSF protein kinase 1 (Homo sapiens) (UniProt Q96SB4). Briefly: Inhibition of SRPK1 (unknown origin) at 1 uM by Ambit Kinomescan binding assay relative to control.
SRSF protein kinase 1 (Homo sapiens), sequence (Q96SB4 whole entry): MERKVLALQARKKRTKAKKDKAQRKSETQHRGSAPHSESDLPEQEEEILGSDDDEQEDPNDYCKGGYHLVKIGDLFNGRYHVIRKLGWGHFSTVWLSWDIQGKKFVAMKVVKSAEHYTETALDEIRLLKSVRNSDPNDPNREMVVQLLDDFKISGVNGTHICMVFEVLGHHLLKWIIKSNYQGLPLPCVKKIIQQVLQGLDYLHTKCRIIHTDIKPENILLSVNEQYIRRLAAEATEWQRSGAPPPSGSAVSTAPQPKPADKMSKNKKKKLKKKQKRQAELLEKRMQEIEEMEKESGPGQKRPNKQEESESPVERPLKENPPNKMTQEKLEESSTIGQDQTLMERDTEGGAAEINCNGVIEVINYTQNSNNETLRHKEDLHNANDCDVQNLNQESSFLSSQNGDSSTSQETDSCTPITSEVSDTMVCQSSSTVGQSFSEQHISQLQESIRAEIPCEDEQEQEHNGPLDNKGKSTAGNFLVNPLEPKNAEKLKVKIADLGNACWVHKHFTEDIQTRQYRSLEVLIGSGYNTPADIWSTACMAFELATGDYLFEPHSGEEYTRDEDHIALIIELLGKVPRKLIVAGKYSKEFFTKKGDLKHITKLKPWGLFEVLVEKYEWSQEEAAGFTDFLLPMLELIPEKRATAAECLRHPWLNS
Test [5] has as its target T1, Serine/threonine-protein kinase ULK1 (Homo sapiens) (UniProt O75385).
T1 sequence (whole entry): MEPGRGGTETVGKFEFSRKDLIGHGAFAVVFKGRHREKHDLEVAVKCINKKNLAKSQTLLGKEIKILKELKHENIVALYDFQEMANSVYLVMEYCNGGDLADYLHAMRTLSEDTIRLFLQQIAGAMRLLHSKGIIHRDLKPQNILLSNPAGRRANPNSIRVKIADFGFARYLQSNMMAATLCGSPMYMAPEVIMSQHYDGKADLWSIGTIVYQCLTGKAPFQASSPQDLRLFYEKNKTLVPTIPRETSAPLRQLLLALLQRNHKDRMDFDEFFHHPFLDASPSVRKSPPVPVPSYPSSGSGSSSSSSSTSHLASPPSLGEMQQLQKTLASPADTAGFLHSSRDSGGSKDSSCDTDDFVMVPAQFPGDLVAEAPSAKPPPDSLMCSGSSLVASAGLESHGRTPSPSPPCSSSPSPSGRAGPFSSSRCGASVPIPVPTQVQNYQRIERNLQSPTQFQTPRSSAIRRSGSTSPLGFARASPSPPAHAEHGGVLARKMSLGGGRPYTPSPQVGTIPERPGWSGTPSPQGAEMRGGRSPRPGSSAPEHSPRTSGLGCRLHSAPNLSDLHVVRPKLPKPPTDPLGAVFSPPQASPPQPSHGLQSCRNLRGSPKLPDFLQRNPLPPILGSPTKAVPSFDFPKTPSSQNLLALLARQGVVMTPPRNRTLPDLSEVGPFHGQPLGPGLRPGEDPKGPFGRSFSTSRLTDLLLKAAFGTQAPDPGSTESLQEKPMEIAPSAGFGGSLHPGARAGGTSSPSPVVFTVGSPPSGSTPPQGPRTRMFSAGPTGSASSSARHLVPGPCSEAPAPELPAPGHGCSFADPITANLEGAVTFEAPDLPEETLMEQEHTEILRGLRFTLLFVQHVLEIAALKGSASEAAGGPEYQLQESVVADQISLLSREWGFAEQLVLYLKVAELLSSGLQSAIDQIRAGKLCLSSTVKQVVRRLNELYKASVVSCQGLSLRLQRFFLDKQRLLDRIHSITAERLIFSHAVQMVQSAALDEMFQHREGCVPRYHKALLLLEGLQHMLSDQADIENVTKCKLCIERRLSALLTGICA
Briefly: Inhibition of ULK1 (unknown origin) at 10 uM by Ambit Kinomescan binding assay.

Test [6] concerns the target T2, Eukaryotic elongation factor 2 kinase (Homo sapiens) (UniProt O00418).
T2 sequence (whole entry): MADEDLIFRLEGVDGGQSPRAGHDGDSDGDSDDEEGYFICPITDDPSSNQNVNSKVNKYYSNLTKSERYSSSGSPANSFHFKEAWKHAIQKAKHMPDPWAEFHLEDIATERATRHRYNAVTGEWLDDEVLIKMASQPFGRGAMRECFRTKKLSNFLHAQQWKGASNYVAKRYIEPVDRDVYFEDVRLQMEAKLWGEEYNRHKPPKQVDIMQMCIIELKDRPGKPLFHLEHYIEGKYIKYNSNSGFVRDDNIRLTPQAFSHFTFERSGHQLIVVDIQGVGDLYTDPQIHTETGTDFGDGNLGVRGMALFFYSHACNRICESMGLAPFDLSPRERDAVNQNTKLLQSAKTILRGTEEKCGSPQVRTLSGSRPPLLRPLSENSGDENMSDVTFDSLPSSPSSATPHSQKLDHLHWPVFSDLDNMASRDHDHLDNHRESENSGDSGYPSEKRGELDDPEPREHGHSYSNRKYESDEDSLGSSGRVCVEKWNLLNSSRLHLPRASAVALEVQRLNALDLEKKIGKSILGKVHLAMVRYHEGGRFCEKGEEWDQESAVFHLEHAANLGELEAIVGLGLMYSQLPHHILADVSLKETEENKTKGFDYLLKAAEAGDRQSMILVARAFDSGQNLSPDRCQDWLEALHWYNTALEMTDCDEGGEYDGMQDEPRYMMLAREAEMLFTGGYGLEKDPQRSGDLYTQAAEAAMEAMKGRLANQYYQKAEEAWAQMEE
Briefly: Inhibition of eEF2K ATP labeling site harbouring YIKYNSNSGFVR in human A-375 cells at 0.05 uM by KiNativ Profiling analysis relative to control. Format: cell-based.

For test [7], the target named is Rho-associated protein kinase 1 (Homo sapiens) (UniProt Q13464). Briefly: Inhibition of ROCK1 Lys2 labeling site in human Huh-7 cell lysate at 1 uM by KiNativ Profiling analysis relative to control. Format: subcellular.
Rho-associated protein kinase 1 (Homo sapiens), sequence (Q13464 2-1354 limits assumed): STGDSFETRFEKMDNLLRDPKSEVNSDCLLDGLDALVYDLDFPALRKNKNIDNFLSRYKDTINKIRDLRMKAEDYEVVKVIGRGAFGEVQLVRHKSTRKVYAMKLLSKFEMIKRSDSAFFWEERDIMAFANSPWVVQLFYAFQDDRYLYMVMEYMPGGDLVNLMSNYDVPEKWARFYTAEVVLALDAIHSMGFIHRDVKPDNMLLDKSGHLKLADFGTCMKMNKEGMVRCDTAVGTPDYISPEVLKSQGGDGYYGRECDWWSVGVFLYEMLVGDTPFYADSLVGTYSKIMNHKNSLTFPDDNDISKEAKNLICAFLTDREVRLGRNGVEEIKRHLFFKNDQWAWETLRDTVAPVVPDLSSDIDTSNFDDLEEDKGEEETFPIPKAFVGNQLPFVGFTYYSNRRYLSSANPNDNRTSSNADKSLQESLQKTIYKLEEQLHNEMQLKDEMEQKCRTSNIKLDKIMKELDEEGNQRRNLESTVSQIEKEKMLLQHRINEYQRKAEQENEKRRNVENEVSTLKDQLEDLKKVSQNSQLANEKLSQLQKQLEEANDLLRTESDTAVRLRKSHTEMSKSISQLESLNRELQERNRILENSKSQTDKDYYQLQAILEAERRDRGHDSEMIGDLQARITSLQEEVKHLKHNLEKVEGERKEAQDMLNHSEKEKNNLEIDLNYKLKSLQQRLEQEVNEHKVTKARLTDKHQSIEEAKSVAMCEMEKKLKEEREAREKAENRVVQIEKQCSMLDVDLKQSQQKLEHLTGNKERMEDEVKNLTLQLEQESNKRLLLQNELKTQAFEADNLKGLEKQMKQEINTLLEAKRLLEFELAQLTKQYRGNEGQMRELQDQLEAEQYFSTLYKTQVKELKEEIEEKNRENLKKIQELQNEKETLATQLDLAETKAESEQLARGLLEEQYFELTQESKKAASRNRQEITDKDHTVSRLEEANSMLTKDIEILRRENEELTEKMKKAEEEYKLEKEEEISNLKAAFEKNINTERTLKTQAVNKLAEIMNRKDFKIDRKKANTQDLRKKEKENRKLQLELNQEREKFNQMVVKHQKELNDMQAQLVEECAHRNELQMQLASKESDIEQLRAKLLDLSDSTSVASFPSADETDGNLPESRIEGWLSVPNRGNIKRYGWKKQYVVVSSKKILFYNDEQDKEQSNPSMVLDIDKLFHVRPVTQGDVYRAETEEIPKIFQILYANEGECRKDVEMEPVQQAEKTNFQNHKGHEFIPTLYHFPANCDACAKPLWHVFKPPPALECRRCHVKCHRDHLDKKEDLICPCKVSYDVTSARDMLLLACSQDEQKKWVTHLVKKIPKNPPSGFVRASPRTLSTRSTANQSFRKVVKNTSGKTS
The target in test [8] is T3, Phosphatidylinositol 5-phosphate 4-kinase type-2 beta (Homo sapiens) (UniProt P78356).
T3 sequence (whole entry): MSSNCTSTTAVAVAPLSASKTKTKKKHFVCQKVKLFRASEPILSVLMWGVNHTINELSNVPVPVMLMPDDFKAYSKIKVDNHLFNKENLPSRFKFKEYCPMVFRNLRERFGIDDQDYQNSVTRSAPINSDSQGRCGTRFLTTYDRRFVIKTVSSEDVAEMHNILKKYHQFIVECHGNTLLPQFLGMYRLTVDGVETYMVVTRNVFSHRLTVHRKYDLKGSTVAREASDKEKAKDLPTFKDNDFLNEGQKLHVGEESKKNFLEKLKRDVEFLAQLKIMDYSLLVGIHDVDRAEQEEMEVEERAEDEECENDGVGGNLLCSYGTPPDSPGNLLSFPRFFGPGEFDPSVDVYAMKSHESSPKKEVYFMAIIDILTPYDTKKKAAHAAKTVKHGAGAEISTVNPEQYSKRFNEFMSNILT
Briefly: Inhibition of PIP4K2B ATP labeling site harbouring AKDLPTFKDNDFLNEGQK in human Huh-7 cell lysate at 1 uM by KiNativ Profiling analysis relative to control. Format: subcellular.

Test [9] has as its target Serine/threonine-protein kinase WNK3 (Homo sapiens) (UniProt Q9BYP7). Briefly: Inhibition of Wnk3 ACT labeling site in human Huh-7 cell lysate at 1 uM by KiNativ Profiling analysis relative to control. The format is subcellular.
Test [10] has as its target Mitogen-activated protein kinase kinase kinase 11 (Homo sapiens) (UniProt Q16584). Nature of the test: Inhibition of MLK3 Lys2 labeling site in human Huh-7 cells at 1 uM by KiNativ Profiling analysis relative to control. Format: cell-based.

The structures appear in SMILES notation. Active and inactive are the calls of the source. The calls are words filed in the database; no cut-off is given here.

Ephrin type-A receptor 5 (Homo sapiens), sequence (P54756 whole entry): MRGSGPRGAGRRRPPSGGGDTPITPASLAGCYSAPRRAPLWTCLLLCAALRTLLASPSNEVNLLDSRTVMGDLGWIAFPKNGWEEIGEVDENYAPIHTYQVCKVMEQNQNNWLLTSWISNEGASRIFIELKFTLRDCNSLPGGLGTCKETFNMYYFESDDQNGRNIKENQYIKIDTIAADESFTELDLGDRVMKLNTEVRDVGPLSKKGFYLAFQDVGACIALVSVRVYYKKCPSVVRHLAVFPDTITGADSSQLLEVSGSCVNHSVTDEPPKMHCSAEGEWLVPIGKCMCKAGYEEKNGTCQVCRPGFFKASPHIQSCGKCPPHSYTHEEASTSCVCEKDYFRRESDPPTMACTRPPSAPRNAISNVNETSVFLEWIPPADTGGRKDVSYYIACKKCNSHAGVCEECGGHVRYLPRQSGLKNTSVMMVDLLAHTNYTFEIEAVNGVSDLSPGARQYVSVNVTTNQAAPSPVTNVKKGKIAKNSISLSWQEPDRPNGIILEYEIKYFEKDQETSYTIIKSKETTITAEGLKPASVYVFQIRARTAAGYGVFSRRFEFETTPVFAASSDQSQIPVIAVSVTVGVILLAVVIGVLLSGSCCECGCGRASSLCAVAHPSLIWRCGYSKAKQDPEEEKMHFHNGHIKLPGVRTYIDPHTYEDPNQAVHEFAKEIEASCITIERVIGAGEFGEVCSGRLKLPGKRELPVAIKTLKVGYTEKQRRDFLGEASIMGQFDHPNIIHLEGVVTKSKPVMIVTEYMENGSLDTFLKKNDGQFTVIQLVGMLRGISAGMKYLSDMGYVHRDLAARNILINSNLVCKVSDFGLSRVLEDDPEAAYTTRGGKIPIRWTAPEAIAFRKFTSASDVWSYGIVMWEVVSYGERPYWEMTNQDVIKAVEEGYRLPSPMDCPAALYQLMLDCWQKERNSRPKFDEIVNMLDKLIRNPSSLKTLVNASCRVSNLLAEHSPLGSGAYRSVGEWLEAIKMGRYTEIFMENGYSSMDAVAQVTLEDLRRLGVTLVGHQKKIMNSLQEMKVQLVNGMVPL
Mitogen-activated protein kinase kinase kinase 11 (Homo sapiens), sequence (Q16584 whole entry, looked up): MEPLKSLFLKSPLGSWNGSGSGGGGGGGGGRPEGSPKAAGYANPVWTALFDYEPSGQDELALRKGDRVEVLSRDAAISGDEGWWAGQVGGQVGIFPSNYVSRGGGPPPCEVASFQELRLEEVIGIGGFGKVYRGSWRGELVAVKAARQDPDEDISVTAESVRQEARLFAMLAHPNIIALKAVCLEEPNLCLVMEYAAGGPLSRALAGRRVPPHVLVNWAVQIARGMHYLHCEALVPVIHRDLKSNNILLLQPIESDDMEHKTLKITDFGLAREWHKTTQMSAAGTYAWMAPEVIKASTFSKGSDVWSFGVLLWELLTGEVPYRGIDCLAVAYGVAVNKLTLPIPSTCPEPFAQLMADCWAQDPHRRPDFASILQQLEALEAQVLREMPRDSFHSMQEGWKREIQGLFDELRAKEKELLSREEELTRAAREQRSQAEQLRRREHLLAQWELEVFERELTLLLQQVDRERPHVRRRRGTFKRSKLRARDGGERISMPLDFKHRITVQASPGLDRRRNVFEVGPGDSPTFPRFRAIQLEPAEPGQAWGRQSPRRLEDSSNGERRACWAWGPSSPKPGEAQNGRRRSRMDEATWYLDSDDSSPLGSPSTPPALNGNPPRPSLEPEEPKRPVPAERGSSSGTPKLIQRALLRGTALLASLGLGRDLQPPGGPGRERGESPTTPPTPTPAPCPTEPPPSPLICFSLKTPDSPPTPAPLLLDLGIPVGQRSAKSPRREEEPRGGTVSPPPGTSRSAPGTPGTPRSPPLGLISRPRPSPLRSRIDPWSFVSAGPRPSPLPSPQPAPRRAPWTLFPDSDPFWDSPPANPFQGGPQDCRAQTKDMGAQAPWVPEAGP

Take `CCN1CCN(Cc2ccc(NC(=O)c3ccc(C)c(/C=C/c4cnc5[nH]ccc5c4OC)c3)cc2C(F)(F)F)CC1`: the inhibition (as a rule, the drop in the measured response relative to a control, in per cent) was 76% in test [1], 21% in [2], 13% in test [3] and 28% in [4].
Regarding `CCN1CCN(Cc2ccc(NC(=O)c3ccc(C)c(Oc4ccnc5[nH]ccc45)c3)cc2C(F)(F)F)CC1`, in test [5], the inhibition result is “inactive”. Besides, the inhibition in [6] is 12.7%.
Take `CNc1cc(Oc2cc(C(=O)Nc3cc(N4CCN(C)CC4)cc(C(F)(F)F)c3)ccc2C)ncn1`: the inhibition in test [7] was 2.7%; in [8], -5.5%; in test [9] it was -6.9%; in test [10], 15%.

Values taken from ChEMBL document CHEMBL5696442, “Discovery of type II inhibitors of TGFβ-activated kinase 1 (TAK1) and mitogen-activated protein kinase kinase kinase kinase 2 (MAP4K2)” (J Med Chem, 2015).
